Tests used:
[1] = test system: methylated UCHL1 promoter (pUCHL1) in HCT116 cells; assay: UCHL1 promoter demethylation assay (EGFP induction, FACS); type: cell-based, human; conditions: five days
Experimental: The assay was performed as described in [29]. Briefly, human colon cancer HCT116 (ATCC, VA, USA) cells were grown in Dulbecco’s Modified Eagle Medium (DMEM; Euroclone, Milan, Italy) supplemented with 10% fetal bovine serum (FBS; Euroclone, Milan, Italy), 2 mM L-glutamine (Euroclone), and antibiotics (100 U/mL penicillin, 100 µg/mL streptomycin) (Euroclone). The pUMLIEP vector (composed by MetLuc-IRES-EGFP construct upon the control of the ubiquitin carboxyl-terminal hydrolase L1 (UCHL1)) was linearized and methylated by with ClaI and SssI-methylase enzymes (New England Biolabs, Milan, Italy). After, methylated pUMLIEP was transfected into HCT116 cells following the protocol described in [30]. […] On day 5, cells were observed under by a fluorescent microscope (Cytation 5 Cell Imaging Multi-Mode Reader (BioTeK Milan, Italy) and BD Accuri flow cytometers. Nuclei were counterstained with DAPI (10 µg/mL, Invitrogen, Tournai, Belgium).

[2] = molecular target: T1, C-terminal catalytic domain of human DNMT3A (hDNMT3A) (Homo sapiens, UniProt Q9Y6K1); assay: DNMT3A restriction-based fluorescence assay; type: biochemical; conditions: for EC50: mean of at least two independent experiments, read-out: Enzyme Inhibition (EC50 ± SD) hDNMT3A
T1 construct: the C-terminal catalytic domain of human DNMT3A (hDNMT3A)
T1 sequence (Q9Y6K1 634-912 limits assumed): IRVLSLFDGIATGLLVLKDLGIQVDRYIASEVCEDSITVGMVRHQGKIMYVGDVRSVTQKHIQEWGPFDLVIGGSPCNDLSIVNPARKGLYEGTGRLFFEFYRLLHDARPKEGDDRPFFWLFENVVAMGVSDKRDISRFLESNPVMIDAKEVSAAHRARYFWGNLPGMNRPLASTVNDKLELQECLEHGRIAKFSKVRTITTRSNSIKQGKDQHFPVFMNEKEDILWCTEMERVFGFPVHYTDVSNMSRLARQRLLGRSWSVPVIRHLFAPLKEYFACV
Experimental: DNMT3A enzyme inhibition was adapted from the restriction-based fluorescence assay protocol described in Ceccaldi et al.. Briefly, a biotin-labelled oligonucleotide at the 5’ end is hybridized to his complementary strand labelled at the 3’ end with 6-carboxyfluorescein. The DNA duplex containing only one single CpG site overlapping with a restriction site of a methylation sensitive restriction enzyme is transferred in the wells coated with avidin. The methylation reaction is performed by adding human C-terminal DNMT3A at the final concentration of 4 ng/µL in a total volume of 50 µL in the presence of the inhibitors at various concentrations and the co-substrate SAM at the final concentration of 20 µM. The plate was incubated for 1 h at 37 °C, washed, and added with the methylation sensitive restriction enzyme HpyCH4IV, incubated for 1 h further at 37 °C, washed and the fluorescence measured with a PerkinElmer Envision Multilabel Plate Reader. The data are expressed as percentage of inhibition vs. log concentration (M). Data are normalized referring to the “restriction control” (wells coated with labelled duplex not treated nor exposed to DNMT3A, but only cleaved by HpyCH4IV) as the maximum of inhibition (100%) and to the “DMSO control” (wells coated with labelled duplex but treated just with 0.1% DMSO exposed to DNMT3A and then to HpyCH4IV) as the minimum of inhibition (0%; total methylation).

[3] = test system: peripheral blood B lymphocyte AHH1 cells; assay: Differential toxicity, antiproliferative assay; type: cell-based; conditions: Homo sapiens, AHH-1; 48 h treatment; read-out: IC50 against AHH1 cells
Experimental: U937 histiocytic lymphoma, HL60 acute promyelocytic leukemia, H1299 lung adenocarcinoma, MCF7 breast carcinoma, HT1080 fibrosarcoma, M14 melanoma, HeLa epithelial cervix carcinoma and peripheral blood B lymphocyte AHH1 human cell lines were obtained from the Deutsche Sammlung für Mikroorganismen and Zellkulturen (DSZM, Braunschweig, Germany) and were maintained in RPMI 1640 medium contained 10% fetal bovine serum (FBS), 2 mM L-glutamine, and antibiotics in a humidified atmosphere with 5% CO2 at 37 °C. […]
Then, increasing concentrations of different compounds (ranging from 0.01 to 100 μM) were added, and cell proliferation was evaluated by a MTT assay after 48 h. […] The effect of compounds was evaluated using the CellTiter-Glo luminescent cell viability assay (Promega, Madison, WI, USA) according to the manufacturer’s instructions. […] After treatments, MTT solution was added for 3 h at 0.5 mg/mL, the obtained crystals were dissolved in DMSO (Sigma-Aldrich, Milan, Italy), and the absorbance was read at a wavelength of 570 nm with reader TECAN M-200. […]
IC50 values of compounds against cellular viability were determined by using nonlinear regression fitting curves with GraphPad Prism 8. […]

DNMT3A protein = molecular target: T2, DNMT3A protein (Homo sapiens, UniProt Q9Y6K1); assay: Western blot of DNMT3A protein level in HCT116 cells; type: cell-based; conditions: 24 h
T2 construct: endogenous in cells; host or cells: HCT116
T2 sequence (Q9Y6K1 whole entry, looked up): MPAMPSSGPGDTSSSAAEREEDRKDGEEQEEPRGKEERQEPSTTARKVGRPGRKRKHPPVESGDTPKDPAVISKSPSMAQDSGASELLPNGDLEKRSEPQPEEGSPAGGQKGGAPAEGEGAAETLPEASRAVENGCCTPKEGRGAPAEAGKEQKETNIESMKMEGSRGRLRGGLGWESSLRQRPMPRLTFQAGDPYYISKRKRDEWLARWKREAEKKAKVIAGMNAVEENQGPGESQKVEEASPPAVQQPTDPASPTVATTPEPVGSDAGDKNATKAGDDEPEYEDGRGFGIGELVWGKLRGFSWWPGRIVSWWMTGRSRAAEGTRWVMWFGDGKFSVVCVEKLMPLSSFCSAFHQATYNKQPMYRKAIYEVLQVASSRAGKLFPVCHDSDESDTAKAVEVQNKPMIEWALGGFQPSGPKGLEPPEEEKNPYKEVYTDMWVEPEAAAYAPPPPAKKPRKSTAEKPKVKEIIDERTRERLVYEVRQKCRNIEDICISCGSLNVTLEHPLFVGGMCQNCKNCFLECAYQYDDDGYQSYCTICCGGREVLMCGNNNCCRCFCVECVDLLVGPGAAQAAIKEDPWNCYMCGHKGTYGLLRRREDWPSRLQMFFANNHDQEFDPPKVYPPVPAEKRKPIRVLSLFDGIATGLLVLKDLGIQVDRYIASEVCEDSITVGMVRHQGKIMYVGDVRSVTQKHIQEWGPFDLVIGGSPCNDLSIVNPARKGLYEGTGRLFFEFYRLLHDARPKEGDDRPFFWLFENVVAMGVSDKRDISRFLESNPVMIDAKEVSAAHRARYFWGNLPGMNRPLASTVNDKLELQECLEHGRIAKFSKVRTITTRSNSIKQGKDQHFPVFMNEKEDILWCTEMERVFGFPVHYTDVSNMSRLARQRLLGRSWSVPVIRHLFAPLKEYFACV
Excerpt: Cells were lysed in Laemmli buffer; subsequently the proteins were resolved by sodium dodecyl sulphate-polyacrylamide gel electrophoresis and transferred to a 0.45 µm nitrocellulose membrane (Bio-Rad Laboratories, Hercules, CA, USA). The following primary antibodies were used for immunoblotting: α-DNMT1 (Novus Biologicals, Littleton, CO, USA). α-DNMT3a (SantaCruz Bio-technologies, CA, USA) and α-GAPDH (Millipore Corp., Bedford, MA USA), used as a loading control. The immune complexes were detected with horseradish peroxidase-conjugated species-specific secondary antiserum (Bio-Rad Laboratories, Hercules, CA, USA) then by enhanced chemiluminescence reaction (Bio-Rad Laboratories, Hercules, CA, USA). Densitometric analysis of protein expression was performed by using the Fiji-Image J image processing package.

U937 cells = assay: Sub-G1 peak, cell cycle flow cytometry; type: cell-based, human; conditions: U937, 1 µM; for effect on sub-G1 peaks vs untreated cells: 24 and 48 h
Experimental: Cell cycle analysis was performed on 5 × 10^5 fixed cells resuspended in a RNase A (3 mg/mL) and propidium iodide (PI) solution (1 mg/mL). Samples were analyzed with a C6 Accuri BD (Becton Dickinson & Co., San Jose, CA, USA). The percentage of apoptosis was measured analyzing sub-G1 peaks. Apoptotic cell death was also evaluated by using annexin V–fluorescein isothiocyanate (FITC) apoptosis kit (BD Bioscience) and assayed according to the manufacturer’s instructions. Cells double-stained for both annexin V and PI were analyzed by flow cytometry. PI was used in conjunction with annexin V–FITC to distinguish cells in the earlier stages of apoptosis (annexin V-FITC positive, PI negative) from those in later stages of apoptosis or that were already dead (annexin V–FITC positive, PI positive). Percentage of cells positive for caspase-3 activation was evaluated by Active Caspase-3 Apoptosis Kit (BD biosciences, Milan, Italy) according to the manufacturer’s instructions.

Compound	EC50 [2] [µM]	IC50 [3] [µM]	DNMT3A protein level (western blot) (DNMT3A protein; HCT116, 1 µM)	effect on sub-G1 peaks vs untreated cells (U937 cells)	further results
O=C(Nc1cccc(Nc2ccnc3ccccc23)c1)c1ccc(Nc2ccnc3ccccc23)cc1 [Compound 2c]	5.6 ± 1				pUCHL1 demethylation, EGFP-positive cells (FACS R1) ([1]; HCT116, 0.1 µM): 42.3%
O=C(Nc1cccc(Nc2ccnc3ccccc23)c1)c1cccc(Nc2ccnc3ccccc23)c1 [Compound 2b]		3.3	decrease		
O=C(Nc1cccc(NC(=O)c2ccc(Nc3ccnc4ccccc34)cc2)c1)OCc1ccccc1 [Compound 4c]	6.1 ± 1	9.6	decrease	no	pUCHL1 demethylation, EGFP-positive cells (FACS R1) ([1]; HCT116, 0.5 µM): 58.7%; DNMT3A protein level (western blot) (DNMT3A protein; HCT116, 0.1 µM): decrease; DNMT3A protein level (western blot) with bortezomib (DNMT3A protein; HCT116, 1 µM, co-treated with bortezomib 10 nM): rescued; fold more potent than 4 against hDNMT3A ([2]; ratio of EC50 values vs 4): 3 fold
O=C(Nc1ccc(NC(=O)c2cccc(Nc3ccnc4ccccc34)c2)cc1)OCc1ccccc1 [Compound 4a]	> 32			very low	
O=C(Nc1ccc(Nc2ccnc3ccccc23)cc1)c1cccc(Nc2ccnc3ccccc23)c1 [Compound 2a]	6 ± 1				percentage of sub-G1 peak (U937 cells; 48 h): 62%

From publication PMC7073229, “Novel Quinoline Compounds Active in Cancer Cells through Coupled DNA Methyltransferase Inhibition and Degradation” (Cancers, 2020)
